In US10179802B2 (priority 2014, dated 2019):

System: HVA calcium channel
Assay type: cell-based, rat

COC(=O)C1=C(C)NC(C)=C(C(=O)OC)C1c1ccccc1[N+](=O)[O-] [Nifedipine]
current after loading: −734.31 pA | current before loading: −1471.35 pA | inhibition rate (10 µM): 50.09%
